Test results from patent publication US20030124655A1, “Receptor protein specifically recognizing bacterial dna” (priority 2000, published 2003).
Read-outs that look alike come from different tables or passages of the source.

How the values were obtained:
[1] = test system: dendritic cells derived from bone marrow; assay: IL-12 p40 production in bone marrow-derived dendritic cells (ELISA); assay type: cell-based, mouse; settings: dendritic cells from wild-type mice; 0.1 μM, 2 days
NF-κB = NF-κB DNA-binding activity in peritoneal macrophages (gel shift); settings: 1.0 μM
Experimental: 2 ml of 4% thioglycolic acid medium (DIFCO) was injected to each peritoneum of wild-type mice and TLR9 knockout mice (TLR9^−/−), peritoneal exudation cells were isolated from peritonea from each mouse after 3 days, the cells were cultured in RPMI1640 medium to which 10% of fetal bovine serum (GIBCO) was added at 37° C. for 2 hours, and remove the unattached cells by washing with ice-chilled Hank's buffered salt solution (HBSS; GIBCO), and the attached cells were used as peritoneal macrophages in the following experiments.

spleen cells = assay: Spleen cell proliferation, [3H]-timidine uptake; assay type: cell-based, mouse
IRAK = IRAK activity in macrophages, in vitro kinase assay; assay type: cell-based, mouse
Experimental: (§1) As described in a reference (Immunity 11, 115-122, 1999), the JNK activity and IRAK activity were measured by in vitro kinase assay using GST-c-Jun fusion protein (GST-c-Jun) as a substrate (top figures of FIG. 10 and FIG. 11; GST-c-Jun, Auto).
(§2) The cell lysates were separated by SDS-polyacrylamide gel electrophoresis to transfer them onto a nitrocellulose membrane and blotted the membrane with anti-JNK antibody (Santa Cruz) or anti-IRAK antibody (Transduction Laboratories) to visualize using an enhanced chemiluminescent system (Dupont) (bottom figures of FIG. 10 and FIG. 11; WB).

B cells = assay: MHC class II expression on the surface of B cells; assay type: cell-based, mouse; settings: B cells from wild-type mice
JNK = JNK activity in macrophages, in vitro kinase assay; assay type: cell-based, mouse
Experimental: as §1, §2

[2] = cited from earlier work
[3] = macrophages from TLR9 knockout mice
[4] = macrophages from wild-type mice

Substance: TCC-ATG-ACG-TTC-CTG-ATG-CT (DNA TCCATGACGTTCCTGATGCT; listed as DNA, chemistry not given here) [CpG ODN, ID No: 5; from TIB MOLBIOL]
- IL-12 p40 production [1]: produced IL-12
- NF-κB DNA-binding activity (NF-κB; [3]): did not increase NF-κB DNA-binding activity
- NF-κB DNA-binding activity (NF-κB; [4]): increased NF-κB DNA-binding activity
- cell proliferating reaction ([3H]-timidine uptake) (spleen cells; spleen cells from TLR9 knockout mice, any concentration): did not show any cell proliferating reaction
- cell proliferating reaction ([3H]-timidine uptake) (spleen cells; spleen cells from wild-type mice): promote cell proliferating reactions depending on the amount
- IRAK activation (IRAK; [3]): does not activate
- IRAK activation (IRAK; [4]): activates
- amount of expressing MHC class II on the surface of B cells (B cells): increased
- JNK activation (JNK; [3]): does not activate
- JNK activation (JNK; [4]): activates
- response to CpG ODN ([2]; MyD88 knockout mice): do not show response
- response to CpG ODN ([2]; TLR2 knockout mice): show normal response
- response to CpG ODN ([2]; TLR4 knockout mice): show normal response
